Reference: patent publication US20260152533A1, “COMBINATION INHIBITORS FOR TREATING FIBROSIS” (Memorial Sloan-Kettering Cancer Center, priority 2021, published 2026)

Legend:
[1] = system: pyruvate carboxylase (PC); test: Stable isotope tracing in NIH-3T3 cells (surrogate for PC activity); type: cell-based, mouse
Protocol: Cells were plated in six-well cell culture plates at a concentration aimed to reach 0.5-1×10^6 cells at the time of harvest. For quantification of relative metabolite abundance, cells were cultured with glutamine-free DMEM containing different concentrations of L-glutamine and supplemented with 10% dialyzed FBS and in some experiments were treated with TGFβ for 48 hours. For the [U-^13C]and [3,4-^13C]glucose tracing experiments, cells were cultured as above, and in the last 8 hours media was replaced with DMEM without D-glucose and L-glutamine supplemented with 2 mM or 0.2 mM L-glutamine and 10 mM [U-^13C]or [3,4-^13C]D-glucose (Cambridge Isotope Laboratories) and 10% dialyzed FBS. For the [U-^13C]and [1-^13C]lactate tracing experiments, cells were cultured in 2 or 0.2 mM L-glutamine, 10 or 1 mM D-glucose in the presence or absence of 10 mM sodium lactate, and in the last 8 hours media was replaced with DMEM without D-glucose and L-glutamine supplemented with 2 mM or 0.2 mM L-glutamine, 10 or 1 mM D-glucose, 10 mM [U-^13C]or [1-^13C]sodium lactate (Cambridge Isotope Laboratories) and 10% dialyzed FBS. For relative quantification of metabolites by gas chromatography-mass spectroscopy (GC-MS), cells were washed briefly with PBS, which was then fully aspirated and metabolism was quenched by immediately adding 1 mL of 80:20 methanol:water stored at −80° C. containing 20 μM deuterated 2-hydroxyglutarate (d5-2HG) as an internal standard. For stable isotope tracing experiments, metabolism was quenched without the PBS washing step by adding 1 mL of 80:20 methanol:water as above. After overnight incubation at −80° C., the resulting extracts were scraped on dry ice, transferred into a 1.5 mL centrifuge tube, and centrifuged at 20,000 g for 20 minutes at 4° C. The supernatants were collected in clean tubes and dried in a vacuum evaporator (Genevac EZ-2 Elite) for 2 hours.
For [U-^13C]glucose tracing into proteinogenic amino acids, cells were cultured in 10% Gln in the presence or absence of TGFβ for 48 hours. In the last 24 hours, the media including all treatments was replaced with DMEM without L-glutamine and D-glucose and supplemented with 0.2 mM L-glutamine and 10 mM [U-^13C]D-glucose (Cambridge Isotope Laboratories) and 10% dialyzed FBS. For [U-^13C]lactate tracing into ECM, confluent cells were cultured in 10% Gln in the presence of 10 mM [U-^13C]sodium lactate for 6 days. The media was replaced every other day. ECM was decellularized as described above. Cells and ECM were washed with PBS, and proteins were precipitated with methanol:chloroform:water (1:1:1). The interphase was washed with methanol, and the dried pellet was subjected to acid hydrolysis with 6 N hydrochloric acid (HCl) and incubation at 95° C. for 16 hours. Samples were cooled to room temperature and centrifuged at 20,000 g for 10 minutes. The cleared supernatant was dried in a vacuum evaporator (Genevac EZ-2 Elite) for 2 hours, and abundance of aspartate, glutamate/glutamine or hydroxyproline isotopologues was measured by GC-MS as described below.
GC-MS measurements were performed as described before^11. Ions used for quantification of metabolite levels were as follows: d5-2HG m/z 354; citrate m/z 465; alpha-ketoglutarate m/z 304; succinate m/z 247; fumarate m/z 245; malate m/z 335; aspartate m/z 232; hydroxyproline m/z 332; proline m/z 216; glutamate m/z 246; glutamine m/z 245; lactate m/z 219; pyruvate m/z 174. All peaks were manually inspected and verified relative to known spectra for each metabolite. Peak identification and integration were done with MassHunter software vB.09 (Agilent Technologies). For relative quantification of cell samples, integrated peak areas were normalized to the internal standard d5-2HG and to the packed cell volume of each sample. Absolute quantification of hydroxyproline in tumor acid hydrolysates was performed against a standard curve of commercial trans-4-hydroxy-L-proline (Sigma). […]

NIH-3T3 cells [2] = conditions: proliferative fibroblasts, glutaminase inhibition; cited from earlier work
NIH-3T3 cells [3] = test: Western blot of NIH-3T3 cells (collagen I, GCN2, ATF4, PC); type: cell-based, mouse
Source text: PSCs were isolated from C57BL/6 mice by differential centrifugation as previously described^49 and their mesenchymal origin was validated by analyzing the expression of various mesenchymal and epithelial markers. MFBs were isolated from FVB/N mice by differential centrifugation as previously described^50. DB7 mouse breast cancer cells were obtained from Alexander Borowsky (University of California Davis Comprehensive Cancer Center, Sacramento, CA, USA) through an MTA to Ohio State University (OSU). KPC (Kras^LSL-G12D; Trp53^LSL-R172H; Pdx1-Cre) mouse PDAC cells were a gift from Scott Lowe (Memorial Sloan Kettering Cancer Center. (MSKCC)). All cells were cultured at 37° C. in 5% carbon dioxide (CO2) and 20% oxygen (O2) and were maintained in Dulbecco's Modified Eagles medium (DMEM) (25 mM D-glucose, 2 mM L-glutamine) supplemented with 10% fetal bovine serum (FBS) (Gemini), 100 units/ml penicillin and 100 μg/ml streptomycin. Primary PSC and MFB cells were kept in culture for no more than ten passages. Experiments with iCAFs and myCAFs were performed as previously described^29. In brief, qPSCs were generated by culturing PSCs in a dome of GFR Matrigel (Corning) in DMEM; iCAFs were generated by culturing PSCs in a dome of GFR Matrigel in DMEM conditioned by KPC cells for 48 h; myCAFs were generated by monolayer culture of PSCs. Differentiation was validated by analyzing the expression of iCAF/myCAF markers^29. For experiments with different glutamine concentrations, cells were seeded in regular DMEM and the medium was changed 5-6 hours later or the following day to glucose and glutamine-free DMEM supplemented with 10% dialyzed FBS (Gemini) and 20 mM D-glucose, 2 mM L-glutamine (100%), 0.4 mM L-glutamine (20%) or 0.2 mM L-glutamine (10%). All media were prepared by the Media Preparation Facility at MSKCC. Cells were verified as mycoplasma-free by the MycoAlert Mycoplasma Detection Kit (Lonza).
Lysates were generated by incubating cells or ground tumors in RIPA buffer (Millipore); […] of cleared lysate were analyzed by SDS-polyacrylamide gel electrophoresis (SDS-PAGE) as previously described^11. […] The following secondary antibodies were used: anti-rabbit horseradish peroxidase (HRP) (1:5,000; GE, NA934V), anti-mouse HRP (1:5,000; GE, NA931). Quantification of band intensities of collagen I relative to […] or vinculin in tumor allograft experiments was performed with Image Lab software v6.0 (Bio-Rad).

[4] = 10% Gln, TGFβ, 48 hours (FIG. 1G)

For O=C(Cc1cccc(OC(F)(F)F)c1)Nc1ccc(CCCCc2nnc(NC(=O)Cc3ccccn3)s2)nn1 [CB839], the “m+1 labelling of aspartate and pyruvate carboxylation activity from [3,4-13C]Glc” value ([1]; 100% Gln, CB839, 48 hours (FIG. 4G)) is listed as “increased”, the “m+3 labelling of TCA cycle intermediates and related NEAAs from [U-13C]Glc” value ([1]; CB839, 48 hours (FIG. 4F), indicative of anaplerosis via PC) is listed as “increased” and the Gln-tRNA charging (NIH-3T3 cells [2]) is listed as “restored”. For the same molecule, the “collagen I protein levels” value (NIH-3T3 cells [3]; [4]) was “only marginally increased”, the “rescue of GCN2 activation induced by TGFβ treatment” value (NIH-3T3 cells [3]; [4]) was “did not rescue” and the “collagen I levels” value (NIH-3T3 cells [3]; PC-deleted cells (PC sgRNA), CB839, 48 hours (FIG. 4H)) was “reduced collagen I levels”. The “collagen I levels” value (NIH-3T3 cells [3]; full medium (100% Gln), CB839 1 μM alone, 48 hours (FIG. 4E)) was “did not affect”.
